{
  "source": "patent US20230054595A1",
  "about": "“NOVEL DRUGGABLE TARGETS FOR THE TREATMENT OF INFLAMMATORY DISEASES SUCH AS SYSTEMIC LUPUS ERYTHEMATOSUS (SLE) AND METHODS FOR DIAGNOSIS AND TREATMENT USING THE SAME” (THE CHILDREN'S HOSPITAL OF PHILADELPHIA, priority 2019, published 2023)",
  "system": "TFH cells",
  "experiment": "IL-21 secretion by in vitro differentiated TFH cells cultured with pharmacologic inhibitors (ELISA)",
  "type": "cell-based, human",
  "details": "5 days with inhibitor (A64 150-2500 nM; PF06260933 3.7-100 nM), restimulated with anti-CD3+anti-CD28, ELISA",
  "experimental": "Human primary CD4+ T cells were cultured under TFH condition for 5 days in the presence of the indicated concentrations of each inhibitor (150 nM to 2500 nM for A64, 3.7 nM to 100 nM for PF06260933). In addition, anti-CD3- and anti-CD28-stimulated human CD4+ T cells (non-TFH) were cultured in the presence of inhibitors. After 5 days of primary culture, cells were harvested and 10^6 cells were restimulated with plate-bound human anti-CD3+ anti-CD28 (1 ug/ml each) in the presence of inhibitors. Culture supernatants were collected at the indicated timepoints for measurement of IL-2 and IL-21 by ELISA (eBioscience).",
  "data": [
    {"smiles": "Nc1ccc(-c2cnc(N)c(-c3ccc(Cl)cc3)c2)cn1", "note": "[PF06260933]", "values": [
      {"measurement": "IL-21 production by TFH cells", "result": "dose-dependent reduction"},
      {"measurement": "IL-21 production by TFH cells", "setting": "listed as MINK inhibitory drug", "result": "dose-dependent inhibition"}
    ]}
  ]
}
